Assay results published in ChEMBL document CHEMBL5518186, “Discovery of the cereblon-recruiting tubulin PROTACs effective in overcoming Taxol resistance in vitro and in vivo” (Eur J Med Chem, 2024).
Activity calls are given as the source filed them. No cut-off for these calls is given here.

Tests used:
HeLa = assay: Antiproliferative activity against human HeLa cells incubated for 72 hrs; format: functional, cell-based
[1] = molecular target: T1, Protein cereblon-alpha tubulin (Homo sapiens) (UniProt P0DPH7+P68366+Q71U36+P68363+Q9BQE3+Q6PEY2+A6NHL2+Q9NY65+Q96SW2); assay: Protac activity at CRBN/alpha-tubulin in human A549 cells assessed as reduction in alpha-tubulin level at 0.01 to 1 uM incubated for 48 hrs by immunoblotting analysis; format: cell-based; conditions: dose 0.01-1 µM
[2] = molecular target: T2, Protein cereblon/Tubulin beta (Homo sapiens) (UniProt P68371+Q9H4B7+Q13509+P04350+Q3ZCM7+P07437+Q13885+Q9BVA1+Q9BUF5+Q96SW2+A6NNZ2); assay: (§1) Protac activity at CRBN/beta-tubulin in human A549 cells assessed as reduction in beta-tubulin level incubated for 48 hrs by immunoblotting analysis; format: cell-based
[3] = molecular target: Protein cereblon/Tubulin beta; assay: as §1; format: cell-based
[4] = molecular target: T1, Protein cereblon-alpha tubulin (Homo sapiens); assay: (§2) Protac activity at CRBN/alpha-tubulin in human A549/Taxol cells assessed as reduction in alpha-tubulin level incubated for 48 hrs by immunoblotting analysis; format: cell-based
[5] = molecular target: Protein cereblon-alpha tubulin; assay: as §2; format: cell-based
[6] = molecular target: T2, Protein cereblon/Tubulin beta (Homo sapiens); assay: (§3) Protac activity at CRBN/beta-tubulin in human A549/Taxol cells assessed as reduction in beta-tubulin level incubated for 48 hrs by immunoblotting analysis; format: cell-based
[7] = molecular target: Protein cereblon/Tubulin beta; assay: as §3; format: cell-based
[8] = molecular target: T3, Protein cereblon/Tubulin beta-3 chain (Homo sapiens, UniProt Q13509+Q96SW2); assay: Protac activity at CRBN/beta3-tubulin in human A549/Taxol cells assessed as reduction in beta3-tubulin level incubated for 48 hrs by immunoblotting analysis; format: cell-based
[9] = molecular target: T2, Protein cereblon/Tubulin beta (Homo sapiens); assay: Protac activity at CRBN/beta-tubulin in human HeLa cells assessed as reduction in beta-tubulin level at 10 to 1000 nM incubated for 48 hrs by immunoblotting analysis; format: cell-based; conditions: dose 10-1000 nM
[10] = molecular target: T1, Protein cereblon-alpha tubulin (Homo sapiens); assay: Protac activity at CRBN/alpha-tubulin in human MGC-803 cells assessed as reduction in alpha-tubulin level at 10 to 1000 nM incubated for 48 hrs by immunoblotting analysis; format: cell-based; conditions: dose 10-1000 nM
[11] = molecular target: T2, Protein cereblon/Tubulin beta (Homo sapiens); assay: Protac activity at CRBN/beta-tubulin in human A549 cells assessed as reduction in beta-tubulin level at 0.25 uM pretreated with pomalidomide for 2 hrs followed by compound addition and measured after 24 hrs by immunoblotting analysis; format: cell-based
[12] = molecular target: T3, Protein cereblon/Tubulin beta-3 chain; assay: Protac activity at CRBN/beta3-tubulin in human A549 cells assessed as reduction in beta3-tubulin level at 0.25 uM pretreated with CA-4 for 2 hrs followed by compound addition and measured after 24 hrs by immunoblotting analysis; format: cell-based
Target sequence in this assay (Q13509 whole entry, looked up): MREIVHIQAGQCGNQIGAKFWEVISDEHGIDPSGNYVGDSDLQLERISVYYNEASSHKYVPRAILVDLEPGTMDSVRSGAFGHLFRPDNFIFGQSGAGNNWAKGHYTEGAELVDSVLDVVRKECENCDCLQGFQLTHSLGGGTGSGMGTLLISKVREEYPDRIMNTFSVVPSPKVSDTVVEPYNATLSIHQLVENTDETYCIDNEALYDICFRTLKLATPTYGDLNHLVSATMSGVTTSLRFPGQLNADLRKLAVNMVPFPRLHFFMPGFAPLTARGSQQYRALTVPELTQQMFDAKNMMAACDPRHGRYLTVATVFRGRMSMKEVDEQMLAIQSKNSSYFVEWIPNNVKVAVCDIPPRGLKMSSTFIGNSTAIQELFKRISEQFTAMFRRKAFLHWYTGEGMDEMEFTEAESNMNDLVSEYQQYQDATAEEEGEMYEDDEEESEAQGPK
Target sequence in this assay (Q96SW2 whole entry, looked up): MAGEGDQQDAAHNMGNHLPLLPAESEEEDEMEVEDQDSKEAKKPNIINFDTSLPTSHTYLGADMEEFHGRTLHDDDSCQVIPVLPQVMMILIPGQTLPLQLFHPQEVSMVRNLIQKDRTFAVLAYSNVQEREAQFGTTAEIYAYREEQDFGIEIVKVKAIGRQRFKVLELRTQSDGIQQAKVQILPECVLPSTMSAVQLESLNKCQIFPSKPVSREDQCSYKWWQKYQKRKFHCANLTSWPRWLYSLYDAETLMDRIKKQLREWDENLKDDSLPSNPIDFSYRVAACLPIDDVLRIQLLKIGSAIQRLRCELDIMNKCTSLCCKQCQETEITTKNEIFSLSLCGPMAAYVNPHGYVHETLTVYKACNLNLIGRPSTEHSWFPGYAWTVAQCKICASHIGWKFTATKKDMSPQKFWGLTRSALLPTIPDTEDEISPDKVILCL

[13] = molecular target: T1, Protein cereblon-alpha tubulin (Homo sapiens); assay: Protac activity at CRBN/alpha-tubulin in human A549/Taxol cells assessed as reduction in alpha-tubulin level at 0.25 uM pretreated with MG-132 followed by compound addition and measured after 48 hrs by immunoblotting analysis; format: cell-based
[14] = molecular target: T2, Protein cereblon/Tubulin beta (Homo sapiens); assay: Protac activity at CRBN/beta-tubulin in human A549/Taxol cells assessed as reduction in beta-tubulin level at 0.25 uM pretreated with MG-132 followed by compound addition and measured after 48 hrs by immunoblotting analysis; format: cell-based
[15] = molecular target: T3, Protein cereblon/Tubulin beta-3 chain; assay: Protac activity at CRBN/beta3-tubulin in human A549/Taxol cells assessed as reduction in beta3-tubulin level at 0.25 uM pretreated with CA-4 for 2 hrs followed by compound addition and measured after 48 hrs by immunoblotting analysis; format: cell-based
Target sequence in this assay (Q13509 whole entry, looked up): as the sequence (Q13509 whole entry, looked up) above
Target sequence in this assay (Q96SW2 whole entry, looked up): as the sequence (Q96SW2 whole entry, looked up) above

MCF7 = assay: Inhibition of cell growth in human MCF7 cells incubated for 72 hrs by SRB method; format: functional, cell-based; conditions: MCF7, 72 h
[16] = Resistance index, ratio of IC50 for human MCF7/Taxol cells to IC50 for human MCF7 cells; format: functional
A549 [17] = assay: Induction of cell cycle arrest in human A549 cells assessed as accumulation of cells at G0/G1 phase at 0.01 uM incubated for 24 hrs by PI staining based flow cytometry analysis (reference value: 66.75%); format: functional
A549 [18] = assay: Induction of cell cycle arrest in human A549 cells assessed as accumulation of cells at S phase at 0.01 uM incubated for 24 hrs by PI staining based flow cytometry analysis (reference value: 1.39%); format: functional
A549/TR [19] = assay: Induction of cell cycle arrest in human A549/Taxol cells assessed as accumulation of cells at G0/G1 phase at 0.002 uM incubated for 24 hrs by PI staining based flow cytometry analysis (reference value: 77.86%); format: functional
A549/TR [20] = assay: Induction of cell cycle arrest in human A549/Taxol cells assessed as accumulation of cells at S phase at 0.002 uM incubated for 24 hrs by PI staining based flow cytometry analysis (reference value: 2.85%); format: functional
A549/TR [21] = assay: Induction of cell cycle arrest in human A549/Taxol cells assessed as accumulation of cells at G2/M phase at 0.002 uM incubated for 24 hrs by PI staining based flow cytometry analysis (reference value: 17.02%); format: functional
A549/TR [22] = assay: Induction of cell cycle arrest in human A549/Taxol cells assessed as accumulation of cells at S phase at 0.01 uM incubated for 24 hrs by PI staining based flow cytometry analysis (reference value: 2.85%); format: functional
A549/TR [23] = assay: Induction of cell cycle arrest in human A549/Taxol cells assessed as accumulation of cells at G2/M phase at 0.01 uM incubated for 24 hrs by PI staining based flow cytometry analysis (reference value: 17.02%); format: functional
A549/TR [24] = assay: Induction of cell cycle arrest in human A549/Taxol cells assessed as accumulation of cells at G0/G1 phase at 0.05 uM incubated for 24 hrs by PI staining based flow cytometry analysis (reference value: 77.86%); format: functional
A549 [25] = assay: Induction of apoptosis in human A549 cells assessed as increase in apoptotic rate at 0.01 uM incubated for 48 hrs by Annexin V-FITC/PI staining based flow cytometry analysis (reference value: 1.3%); format: functional
A549 [26] = assay: Induction of apoptosis in human A549 cells assessed as increase in apoptotic rate at 0.05 uM incubated for 48 hrs by Annexin V-FITC/PI staining based flow cytometry analysis (reference value: 1.3%); format: functional
HUVEC [27] = assay: Antiangiogenic activity in HUVECs assessed as reduction in tube area at 2.5 nM incubated for 6 to 8 hrs by inverted microscopic analysis; format: functional, cell-based; conditions: Homo sapiens, time 6-8 hrs
HUVEC [28] = assay: Antiangiogenic activity in HUVECs assessed as reduction in tube length at 2.5 nM incubated for 6 to 8 hrs by inverted microscopic analysis; format: functional, cell-based; conditions: Homo sapiens, time 6-8 hrs
A549 [29] = assay: Antitumor activity against human A549 cells xenografted in nude mouse assessed as tumor growth inhibition at 15 mg/kg, […] administered once every 2 days for 23 days by Vernier caliper method; format: functional; conditions: A549, 552 h, time 23 day, read-out: TGI
A549/TR [30] = assay: Antitumor activity against human A549/Taxol cells xenografted in nude mouse assessed as tumor growth inhibition at 15 mg/kg, ip administered once every 2 days for 23 days by Vernier caliper method; format: functional; conditions: 552 h, time 23 day, read-out: TGI
[31] = Toxicity in nude mouse xenografted with human A549 cells assessed as body weight loss at 15 mg/kg, ip administered once every 2 days for 23 days and measured every 3 days; format: organism-based; conditions: in vivo, 552 h, time 23 day
HepG2 [32] = assay: Induction of cell cycle arrest in human HepG2 cells assessed as G2/M phase arrest; format: functional, cell-based
HepG2 [33] = assay: Induction of intracellular ROS generation in human HepG2 cells; format: functional, cell-based

COc1ccc(/C=C\c2cc(OC)c(OC)c(OC)c2)cc1OC(=O)CCCNc1cccc2c1C(=O)N(C1CCC(=O)NC1=O)C2=O (stereo unspecified)
IC50 (HeLa): 21 nM
Activity [1]: Active
Activity [2]: Dose-Dependent Effect
DC50 [3]: 856 nM
Activity [4]: Dose-Dependent Effect
DC50 [5]: 32 nM
Activity [6]: Dose-Dependent Effect
DC50 [7]: 972 nM
Activity [8]: Dose-Dependent Effect
DC50 [8]: 5 nM
Activity [9]: Active
Activity [10]: Active
Activity [11]: inactive
Activity [12]: inactive
Activity [13]: inactive
Activity [14]: inactive
Activity [15]: inactive
IC50 (MCF7): 12 nM
Ratio IC50 [16]: 0.5
Activity (A549 [17]): 16.29%
Activity (A549 [18]): 15.35%
Activity (A549/TR [19]): 67.61%
Activity (A549/TR [20]): 7.68%
Activity (A549/TR [21]): 23.69%
Activity (A549/TR [22]): 10.77%
Activity (A549/TR [23]): 63.83%
Activity (A549/TR [24]): 30%
Activity (A549 [25]): 23.1%
Activity (A549 [26]): 48.2%
Activity (HUVEC [27]): Active
Activity (HUVEC [28]): Active
inhibition in vivo at 15 mg/kg (A549 [29]): 34.1%
inhibition in vivo at 15 mg/kg (A549/TR [30]): 65.8%
Activity [31]: Non-Toxic
Activity (HepG2 [32]): Active
Activity (HepG2 [33]): Active
